The record followed here is patent US11168073B2, “3,3-difluoroallylamines or salts thereof and pharmaceutical compositions comprising the same” (YUHAN CORPORATION, priority 2018, dated 2021).

Holding throughout (assay type): biochemical
Assay [1] addresses T1, recombinant human VAP-1 (Homo sapiens, UniProt Q16853).
T1 construct: purchased R&D systems
T1 sequence (Q16853 1-763): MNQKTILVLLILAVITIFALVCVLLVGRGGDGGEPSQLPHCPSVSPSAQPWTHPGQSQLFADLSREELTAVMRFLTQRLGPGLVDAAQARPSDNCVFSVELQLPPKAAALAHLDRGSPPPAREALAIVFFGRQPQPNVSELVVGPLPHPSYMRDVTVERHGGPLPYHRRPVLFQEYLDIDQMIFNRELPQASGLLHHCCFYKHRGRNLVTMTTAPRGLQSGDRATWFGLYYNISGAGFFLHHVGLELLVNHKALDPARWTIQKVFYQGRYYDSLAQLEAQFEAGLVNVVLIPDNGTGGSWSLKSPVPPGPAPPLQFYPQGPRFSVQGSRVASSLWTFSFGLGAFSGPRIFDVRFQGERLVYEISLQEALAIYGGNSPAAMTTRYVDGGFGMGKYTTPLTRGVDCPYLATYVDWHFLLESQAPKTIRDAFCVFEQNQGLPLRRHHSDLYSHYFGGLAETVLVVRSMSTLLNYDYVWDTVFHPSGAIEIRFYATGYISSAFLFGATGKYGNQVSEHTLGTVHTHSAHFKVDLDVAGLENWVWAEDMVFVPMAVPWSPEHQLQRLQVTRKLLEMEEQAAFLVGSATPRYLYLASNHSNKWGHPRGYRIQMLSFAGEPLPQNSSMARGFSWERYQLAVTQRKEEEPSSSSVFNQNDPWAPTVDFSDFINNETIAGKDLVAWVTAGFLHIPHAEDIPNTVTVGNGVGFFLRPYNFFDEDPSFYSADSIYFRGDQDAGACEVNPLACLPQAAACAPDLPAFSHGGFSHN
The assay can be described thus: Activity evaluation on recombinant human VAP-1 (Amplex Red/HRP-coupled hydrogen peroxide assay, benzylamine substrate). As to conditions: read-out: Inhibitory Activity (IC50, nM) human VAP-1. The gist of the method:
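Recombinant human VAP-1 in 50 mM sodium phosphate pH 7.4 preincubated 30 min at 37 °C with compound (8-point 1:3 series, <1% DMSO), then 1 mM benzylamine, 200 uM Amplex Red, 1 U/mL HRP added. H2O2-derived resorufin fluorescence (ex 544/em 590) followed 1–2 h; IC50 from four-parameter fit of rate inhibition.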

Assay [2] concerns the target T2, recombinant human MAO-A (monoamine oxidase-A) (Homo sapiens, UniProt P21397).
T2 construct: purchased Sigma-Aldrich
T2 sequence (P21397 1-527): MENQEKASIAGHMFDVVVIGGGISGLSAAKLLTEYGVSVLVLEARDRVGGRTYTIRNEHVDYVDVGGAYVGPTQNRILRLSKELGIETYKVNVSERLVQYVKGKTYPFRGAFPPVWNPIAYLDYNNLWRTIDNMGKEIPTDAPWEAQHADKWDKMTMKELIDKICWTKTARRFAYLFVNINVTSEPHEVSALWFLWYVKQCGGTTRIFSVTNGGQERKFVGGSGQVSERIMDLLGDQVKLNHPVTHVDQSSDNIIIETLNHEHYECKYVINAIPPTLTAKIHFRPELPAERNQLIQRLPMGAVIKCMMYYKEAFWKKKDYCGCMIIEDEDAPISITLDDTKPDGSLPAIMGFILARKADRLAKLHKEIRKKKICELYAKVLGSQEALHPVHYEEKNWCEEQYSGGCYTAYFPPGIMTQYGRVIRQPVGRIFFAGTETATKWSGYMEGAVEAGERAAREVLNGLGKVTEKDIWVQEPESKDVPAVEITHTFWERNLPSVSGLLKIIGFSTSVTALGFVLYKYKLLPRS
The assay can be described thus: Activity evaluation on recombinant human MAO-A (Amplex Red/HRP-coupled assay, 0.5 mM tyramine substrate). As to conditions: read-out: Inhibitory Activity (IC50, nM) MAO-A. The method, boiled down:
(§1)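 Compounds preincubated 30 min at 37 °C with enzyme in 50 mM sodium phosphate pH 7.4 (final DMSO <1%, 8-point 1:3 dilutions); reaction started with 200 uM Amplex Red, 1 U/mL HRP and substrate (MAO-A 0.5 mM tyramine, MAO-B 1 mM benzylamine, DAO 1 mM putrescine). Resorufin fluorescence (ex 544/em 590 nm) followed over 1-2 h; IC50 from four-parameter logistic fit.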

Assay [3] deals with T3, recombinant human MAO-B (monoamine oxidase-B) (Homo sapiens, UniProt P27338).
T3 construct: purchased Sigma-Aldrich
T3 sequence (P27338 1-520): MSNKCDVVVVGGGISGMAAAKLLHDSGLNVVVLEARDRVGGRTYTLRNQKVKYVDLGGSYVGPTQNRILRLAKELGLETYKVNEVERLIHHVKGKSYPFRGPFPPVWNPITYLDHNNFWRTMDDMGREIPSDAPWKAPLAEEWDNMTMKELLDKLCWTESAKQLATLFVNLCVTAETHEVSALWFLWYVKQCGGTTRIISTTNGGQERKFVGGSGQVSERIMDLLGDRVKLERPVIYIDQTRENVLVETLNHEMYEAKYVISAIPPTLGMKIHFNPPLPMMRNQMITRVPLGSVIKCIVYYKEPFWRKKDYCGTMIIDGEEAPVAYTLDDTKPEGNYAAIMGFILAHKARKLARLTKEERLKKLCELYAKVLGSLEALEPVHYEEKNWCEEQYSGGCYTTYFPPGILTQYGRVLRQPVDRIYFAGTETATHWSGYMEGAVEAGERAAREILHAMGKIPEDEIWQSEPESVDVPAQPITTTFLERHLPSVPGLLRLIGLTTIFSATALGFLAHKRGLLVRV
The assay can be described thus: Activity evaluation on recombinant human MAO-B (Amplex Red/HRP-coupled assay, 1 mM benzylamine substrate). As to conditions: read-out: Inhibitory Activity (IC50, nM) MAO-B. The gist of the method: as §1

For assay [4], the target named is T4, recombinant human DAO (diamine oxidase) (Homo sapiens, UniProt P19801).
T4 construct: purchased R&D systems
T4 sequence (P19801 20-751): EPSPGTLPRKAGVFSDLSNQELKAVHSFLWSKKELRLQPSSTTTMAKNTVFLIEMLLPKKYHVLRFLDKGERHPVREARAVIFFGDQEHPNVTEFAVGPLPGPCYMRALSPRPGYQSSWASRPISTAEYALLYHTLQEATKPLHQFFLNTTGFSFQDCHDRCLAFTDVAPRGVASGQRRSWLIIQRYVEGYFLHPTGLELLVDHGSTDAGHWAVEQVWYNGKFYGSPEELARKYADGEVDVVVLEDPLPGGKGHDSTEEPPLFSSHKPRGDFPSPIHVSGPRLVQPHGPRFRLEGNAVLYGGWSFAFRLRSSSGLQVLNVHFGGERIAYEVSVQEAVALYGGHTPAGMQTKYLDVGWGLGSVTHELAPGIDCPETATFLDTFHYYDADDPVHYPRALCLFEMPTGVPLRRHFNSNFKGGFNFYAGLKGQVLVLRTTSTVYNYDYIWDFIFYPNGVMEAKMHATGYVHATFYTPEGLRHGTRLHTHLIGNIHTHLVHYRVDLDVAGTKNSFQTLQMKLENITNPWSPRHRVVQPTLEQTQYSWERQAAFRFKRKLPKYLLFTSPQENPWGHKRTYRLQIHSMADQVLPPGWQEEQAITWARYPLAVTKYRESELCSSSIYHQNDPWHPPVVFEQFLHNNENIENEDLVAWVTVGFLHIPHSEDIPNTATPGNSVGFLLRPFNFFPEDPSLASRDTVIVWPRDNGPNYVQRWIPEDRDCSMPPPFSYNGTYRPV
The assay can be described thus: Activity evaluation on recombinant human DAO (Amplex Red/HRP-coupled assay, 1 mM putrescine substrate). The settings on record: read-out: Inhibitory Activity (IC50, nM) DAO. The method, boiled down:
as §1

The mark [5] stands for this setting: recombinant human VAP-1, 30 min preincubation at 37° C., 1 mM benzylamine.
Setting [6] is: recombinant human VAP-1, benzylamine substrate.

Where a name gives a salt, the structure may show the parent alone. Read-outs that look alike come from different tables or passages of the source.

Regarding `CN1C(=O)CCc2cc(-c3csc(Cn4cnn(CC(CN)=C(F)F)c4=O)c3)ccc21` [Example 152, 6-[5-[[1-[2-(aminomethyl)-3,3-difluoro-allyl]-5-oxo-1,2,4-triazol-4-yl]methyl]-3-thienyl]-1-methyl-3,4-dihydroquinolin-2-one Trifluoroacetate], the half-inhibitory concentration (IC50) in assay [1] (setting [5]) is 0.2 nM; in assay [2] (0.5 mM tyramine), greater than 100000 nM; in assay [3] (1 mM benzylamine), 13400 nM; in assay [4] (1 mM putrescine), 3500 nM.
Turning to `CCn1cc(-c2ccc3sc(Cn4cnn(CC(CN)=C(F)F)c4=O)cc3c2)ccc1=O` [Example 207, 5-[2-[[1-[2-(aminomethyl)-3,3-difluoro-allyl]-5-oxo-1,2,4-triazol-4-yl]methyl]benzothiophen-5-yl]-1-ethyl-pyridin-2-one Trifluoroacetate], the half-inhibitory concentration (IC50) in assay [1] (setting [6]) is 0.7 nM; in assay [2] (0.5 mM tyramine substrate), greater than 100000 nM; in assay [3] (1 mM benzylamine substrate), greater than 100000 nM; in assay [4] (1 mM putrescine substrate) it was greater than 100000 nM.
Regarding `NCC(Cn1ncn(Cc2cc(-c3cccc(-c4nc[nH]n4)c3)cs2)c1=O)=C(F)F` [Example 196, 2-[2-(aminomethyl)-3,3-difluoro-allyl]-4-[[4-[3-(1H-1,2,4-triazol-3-yl)phenyl]-2-thienyl]methyl]-1,2,4-triazol-3-one Trifluoroacetate], the 50% inhibitory concentration (IC50) was 1.4 nM in assay [1] (setting [6]), greater than 100000 nM in assay [2] (0.5 mM tyramine substrate), 2900 nM in assay [3] (1 mM benzylamine substrate) and 1900 nM in assay [4] (1 mM putrescine substrate).
Take `Cc1cc(-c2ccc(-n3cnn(CC(CN)=C(F)F)c3=O)cn2)cc2c1NC(=O)CC2` [Example 43, 6-[5-[1-[2-(aminomethyl)-3,3-difluoro-allyl]-5-oxo-1,2,4-triazol-4-yl]-2-pyridyl]-8-methyl-3,4-dihydro-1H-quinolin-2-one Trifluoroacetate]: the concentration for half-maximal inhibition (IC50) was 0.2 nM in assay [1] (setting [5]), greater than 100000 nM in assay [2] (0.5 mM tyramine), 100 nM in assay [3] (1 mM benzylamine) and 22 nM in assay [4] (1 mM putrescine).
On to `NCC(Cn1ncn(Cc2ccc(-c3ccc4c(c3)CCC(=O)N4)s2)c1=O)=C(F)F` [Example 133, 6-[5-[[1-[2-(aminomethyl)-3,3-difluoro-allyl]-5-oxo-1,2,4-triazol-4-yl]methyl]-2-thienyl]-3,4-dihydro-1H-quinolin-2-one Trifluoroacetate], for which the IC50 was 0.2 nM in assay [1] (setting [5]), greater than 100000 nM in assay [2] (0.5 mM tyramine), greater than 100000 nM in assay [3] (1 mM benzylamine) and greater than 10000 nM in assay [4] (1 mM putrescine).
On to `NCC(Cn1ncn(Cc2ccc(-c3ccc4c(c3)COC(=O)N4)s2)c1=O)=C(F)F` [Example 143, 6-[5-[[1-[2-(aminomethyl)-3,3-difluoro-allyl]-5-oxo-1,2,4-triazol-4-yl]methyl]-2-thienyl]-1,4-dihydro-3,1-benzoxazin-2-one Trifluoroacetate], for which the IC50 in assay [1] (setting [5]) was 0.2 nM; in assay [2] (0.5 mM tyramine) it was greater than 100000 nM; in assay [3] (1 mM benzylamine), 6400 nM; in assay [4] (1 mM putrescine), greater than 10000 nM.
On the same counts, the results for `Cc1ccc(Br)nc1-n1cnn(CC(CN)=C(F)F)c1=O` [Example 15, 2-[2-(aminomethyl)-3,3-difluoro-allyl]-4-(6-bromo-3-methyl-2-pyridyl)-1,2,4-triazol-3-one Trifluoroacetate] are 3 nM, greater than 100000 nM, greater than 100000 nM and greater than 100000 nM.
Taken in the same sequence, the figures for `CCn1cc(-c2ccc(Cn3cnn(CC(CN)=C(F)F)c3=O)s2)ccc1=O` [Example 122, 5-[5-[[1-[2-(aminomethyl)-3,3-difluoro-allyl]-5-oxo-1,2,4-triazol-4-yl]methyl]-2-thienyl]-1-ethyl-pyridin-2-one Trifluoroacetate] were 0.4 nM, greater than 100000 nM, 25000 nM and 54000 nM.
On the same counts, the results for `NCC(Cn1ncn(-c2cc(-c3ccc4c(c3)OCO4)ccn2)c1=O)=C(F)F` [Example 58, 2-[2-(aminomethyl)-3,3-difluoro-allyl]-4-[4-(1,3-benzodioxol-5-yl)-2-pyridyl]-1,2,4-triazol-3-one Trifluoroacetate] are 2.2 nM, greater than 100000 nM, greater than 100000 nM and 1700 nM.
Regarding `NCC(Cn1ncn(Cc2ccc(-c3cnc(N)nc3)s2)c1=O)=C(F)F` [Example 116, 2-[2-(aminomethyl)-3,3-difluoro-allyl]-4-[[5-(2-aminopyrimidin-5-yl)-2-thienyl]methyl]-1,2,4-triazol-3-one Trifluoroacetate], the IC50 in assay [1] (setting [5]) was 1.4 nM; in assay [2] (0.5 mM tyramine) it was greater than 100000 nM; in assay [3] (1 mM benzylamine), greater than 10000 nM; in assay [4] (1 mM putrescine), greater than 100000 nM.
Regarding `Cc1cc(-c2ccc(N3CCNCC3)nc2)cnc1-n1cnn(CC(CN)=C(F)F)c1=O` [Example 220, 2-[2-(aminomethyl)-3,3-difluoro-allyl]-4-[3-methyl-5-(6-piperazin-1-yl-3-pyridyl)-2-pyridyl]-1,2,4-triazol-3-one Ditrifluoroacetate], the concentration for half-maximal inhibition (IC50) in assay [1] (setting [6]) is 1.1 nM; in assay [2] (0.5 mM tyramine substrate), greater than 100000 nM; in assay [3] (1 mM benzylamine substrate) it was greater than 100000 nM; in assay [4] (1 mM putrescine substrate) it was 11000 nM.

One may read the IC50 as the concentration that inhibits the measured activity by half.
